Results from patent publication US9624214B2, “Amino-substituted imidazo[1,2-a]pyridinecarboxamides and their use” (BAYER PHARMA AKTIENGESELLSCHAFT, priority 2012, dated 2017).
Structures can show the parent of a compound that is named as a salt.

target: T1, recombinant guanylate cyclase reporter cell line (Rattus norvegicus, UniProt P19686+P20595); assay: B-2. Action on recombinant guanylate cyclase reporter cell line; format: cell-based; details: MEC = minimal effective concentration; in some cases mean values from individual determinations
T1 construct: expressed in transfected cells
T1 sequence (P20595 1-619): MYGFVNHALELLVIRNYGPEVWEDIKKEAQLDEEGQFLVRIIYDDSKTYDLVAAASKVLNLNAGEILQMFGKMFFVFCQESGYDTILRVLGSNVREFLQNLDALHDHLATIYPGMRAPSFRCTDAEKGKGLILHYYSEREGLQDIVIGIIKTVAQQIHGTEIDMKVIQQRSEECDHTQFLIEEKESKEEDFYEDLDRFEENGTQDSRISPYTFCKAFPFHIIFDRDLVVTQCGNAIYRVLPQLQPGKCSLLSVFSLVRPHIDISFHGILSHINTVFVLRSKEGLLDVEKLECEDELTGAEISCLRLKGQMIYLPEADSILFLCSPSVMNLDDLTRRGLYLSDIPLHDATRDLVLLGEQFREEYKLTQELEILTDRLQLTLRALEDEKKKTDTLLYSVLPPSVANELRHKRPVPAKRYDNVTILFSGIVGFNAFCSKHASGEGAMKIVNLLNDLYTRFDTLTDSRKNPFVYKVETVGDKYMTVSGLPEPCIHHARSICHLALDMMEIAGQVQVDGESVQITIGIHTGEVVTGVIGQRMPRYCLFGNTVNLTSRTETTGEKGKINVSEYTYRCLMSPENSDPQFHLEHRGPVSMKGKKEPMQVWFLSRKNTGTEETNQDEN
T1 sequence (P19686 1-690): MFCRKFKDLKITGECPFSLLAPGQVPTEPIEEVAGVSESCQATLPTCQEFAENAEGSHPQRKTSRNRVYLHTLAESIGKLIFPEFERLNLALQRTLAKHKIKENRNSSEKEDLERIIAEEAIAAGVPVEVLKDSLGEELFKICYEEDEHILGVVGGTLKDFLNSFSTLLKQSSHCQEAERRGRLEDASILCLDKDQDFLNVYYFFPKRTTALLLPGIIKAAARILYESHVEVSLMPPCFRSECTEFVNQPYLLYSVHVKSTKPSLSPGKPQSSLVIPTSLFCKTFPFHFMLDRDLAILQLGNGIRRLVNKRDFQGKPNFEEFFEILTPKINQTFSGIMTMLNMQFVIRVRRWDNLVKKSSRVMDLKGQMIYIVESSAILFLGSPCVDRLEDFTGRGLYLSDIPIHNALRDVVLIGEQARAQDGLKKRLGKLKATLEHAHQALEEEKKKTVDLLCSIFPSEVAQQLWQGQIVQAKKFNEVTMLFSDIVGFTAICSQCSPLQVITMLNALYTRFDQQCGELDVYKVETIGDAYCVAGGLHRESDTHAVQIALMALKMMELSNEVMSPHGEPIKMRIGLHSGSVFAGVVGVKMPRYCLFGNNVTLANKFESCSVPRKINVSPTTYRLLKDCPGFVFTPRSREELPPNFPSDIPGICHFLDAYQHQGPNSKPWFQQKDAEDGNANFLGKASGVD
In short: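 Read-out: MEC (minimal effective concentration) in cells. Reporter line carries recombinant sGC. Some values are averages of single runs.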

Compared with `Cc1cc(OCc2c(F)cccc2F)c2nc(C)c(C(=O)NC(C)CN)n2c1` (stereo not drawn) [Example 48, ent-N-(1-Aminopropan-2-yl)-8-[(2,6-difluorobenzyl)oxy]-2,6-dimethylimidazo[1,2-a]pyridine-3-carboxamide], `Cc1cc(OCc2c(F)cccc2F)c2nc(C)c(C(=O)NC(CN)c3ccc(F)c(F)c3)n2c1` (stereo not drawn) [Example 51, ent-N-[2-Amino-1-(3,4-difluorophenyl)ethyl]-8-[(2,6-difluorobenzyl)oxy]-2,6-dimethylimidazo-[1,2-a]pyridine-3-carboxamide] is 5-fold lower in MEC: 1.00 µM for the first, 0.20 µM for the second.

Compared with `Cc1nc2c(OCc3c(F)cccc3F)cc(F)cn2c1C(=O)NC(CN)c1ccc(F)c(F)c1` (stereo not drawn) [Example 53, ent-N-[2-Amino-(3,4-difluorophenyl)ethyl]-8-[(2,6-difluorobenzyl)oxy]-6-fluoro-2-methylimidazo[1,2-a]pyridine-3-carboxamide], `NCC(NC(=O)c1c(C2CC2)nc2c(OCc3c(F)cccc3F)cccn12)c1ccc(F)c(F)c1` (stereo not drawn) [Example 54, ent-N-[2-amino-1-(3,4-difluorophenyl)ethyl]-2-cyclopropyl-8-[(2,6-difluorobenzyl)oxy]-imidazo[1,2-a]pyridine-3-carboxamide] is 3.3-fold higher in MEC: 0.30 µM for the first, 1.00 µM for the second.

First: NCC(NC(=O)c1cnc2c(OCc3c(F)cccc3F)cccn12)c1ccc(F)c(F)c1 (stereo not drawn) [Example 55, ent-N-[2-amino-1-(3,4-difluorophenyl)ethyl]-8-[(2,6-difluorobenzyl)oxy]imidazo[1,2-a]pyridine-3-carboxamide dihydrochloride]
Second: Cc1nc2c(OCc3c(F)cccc3F)cccn2c1C(=O)NCCNc1ccc(F)cc1 [Example 79, 8-[(2,6-difluorobenzyl)oxy]-N-{2-[(4-fluoro-phenyl)amino]ethyl}-2-methylimidazo[1,2-a]-pyridine-3-carboxamide]
The MEC of the first is 2-fold higher: 2.00 µM for the first, 1.00 µM for the second.

Going from `Cc1nc2c(OCc3c(F)cccc3F)cccn2c1C(=O)N[C@H]1CCCNC1` [Example 60, 8-[(2,6-difluorobenzyl)oxy]-2-methyl-N-[(3S)-piperidin-3-yl]imidazo[1,2-a]pyridine-3-carboxamide dihydrochloride] to `Cc1nc2c(OCc3c(F)cccc3F)cccn2c1C(=O)N[C@H]1CCNC1` [Example 61, 8-[(2,6-Difluorobenzyl)oxy]-2-methyl-N-[(3S)-pyrrolidin-3-yl]imidazo[1,2-a]pyridine-3-carboxamide], the MEC rises from 0.30 µM to 3.00 µM (10-fold).

Going from `CCCC[C@H](CN1CCOCC1)NC(=O)c1c(C)nc2c(OCc3c(F)cccc3F)cccn12` [Example 64, ent-8-[(2,6-Difluorobenzyl)oxy]-2-methyl-N-[(2R)-1-(morpholin-4-yl)hexan-2-yl]imidazo[1,2-a]-pyridine-3-carboxamide] to `CCCC[C@H](CN1CCCC1)NC(=O)c1c(C)nc2c(OCc3c(F)cccc3F)cccn12` [Example 66, ent-8-[(2,6-difluorobenzyl)oxy]-2-methyl-N-[(2R)-1-(pyrrolidin-1-yl)hexan-2-yl]imidazo[1,2-a]-pyridine-3-carboxamide], the MEC rises from 0.30 µM to 1.00 µM (3.3-fold).

`CCCC[C@H](CN1CCN(C)CC1)NC(=O)c1c(C)nc2c(OCc3c(F)cccc3F)cccn12` [Example 67, ent-8-[(2,6-difluorobenzyl)oxy]-2-methyl-N-[(2R)-1-(4-methylpiperazin-1-yl)hexan-2-yl]imidazo[1,2-a]pyridine-3-carboxamide] and `CCCC[C@H](CN(C)C)NC(=O)c1c(C)nc2c(OCc3c(F)cccc3F)cccn12` [Example 68, ent-8-[(2,6-difluorobenzyl)oxy]-N-[(2R)-1-(dimethylamino)hexan-2-yl]-2-methylimidazo[1,2-a]pyridine-3-carboxamide] are the same in MEC: 0.30 µM for the first, 0.30 µM for the second.

`CCCC[C@H](CN(CC)CC)NC(=O)c1c(C)nc2c(OCc3c(F)cccc3F)cccn12` [Example 69, ent-N-[(2R)-1-(diethylamino)hexan-2-yl]-8-[(2,6-difluorobenzyl)oxy]-2-methylimidazo[1,2-a]-pyridine-3-carboxamide] and `CCCC[C@H](CNCCOC)NC(=O)c1c(C)nc2c(OCc3c(F)cccc3F)cccn12` [Example 70, ent-8-[(2,6-difluorobenzyl)oxy]-N-{(2R)-1-[(2-methoxyethyl)amino]hexan-2-yl}-2-methylimidazo[1,2-a]pyridine-3-carboxamide] are the same in MEC: 1.00 µM for the first, 1.00 µM for the second.

First: CCN1C2CCCC1CC(NC(=O)c1c(C)nc3c(OCc4c(F)cccc4F)cccn13)C2 (stereo not drawn) [Example 71, 8-[(2,6-Difluorobenzyl)oxy]-N-(9-ethyl-9-azabicyclo[3.3.1]non-3-yl)-2-methylimidazo[1,2-a]-pyridine-3-carboxamide]
Second: Cc1nc2c(OCc3c(F)cccc3F)cccn2c1C(=O)NC1CC2CCCC(C1)N2C (stereo not drawn) [Example 90, 8-[(2,6-difluorobenzyl)oxy]-2-methyl-N-(9-methyl-9-azabicyclo[3.3.1]non-3-yl)imidazo[1,2-a]pyridine-3-carboxamide]
The MEC of the first is 3-fold higher: 0.30 µM for the first, 0.10 µM for the second.

`Cc1nc2c(OCc3c(F)cccc3F)cccn2c1C(=O)NCC(C)(C)N` [Example 72, N-(2-Amino-2-methylpropyl)-8-[(2,6-difluorobenzyl)oxy]-2-methylimidazo[1,2-a]pyridine-3-carboxamide] and `Cc1nc2c(OCc3c(F)cccc3F)cc(Cl)cn2c1C(=O)NCC(C)(C)N` [Example 73, N-(2-Amino-2-methylpropyl)-6-chloro-8-[(2,6-difluorobenzyl)oxy]-2-methylimidazo[1,2-a]-pyridine-3-carboxamide] are the same in MEC: 0.30 µM for the first, 0.30 µM for the second.

First: Cc1nc2c(OCc3c(F)cccc3F)cccn2c1C(=O)NC1CC(C)(C)NC(C)(C)C1 [Example 82, 8-[(2,6-Difluorobenzyl)oxy]-2-methyl-N-(2,2,6,6-tetramethylpiperidin-4-yl)imidazo[1,2-a]-pyridine-3-carboxamide]
Second: Cc1nc2c(OCc3c(F)cccc3F)cccn2c1C(=O)NC1CC(C)(C)N(C)C(C)(C)C1 [Example 83, 8-[(2,6-difluorobenzyl)oxy]-2-methyl-N-(1,2,2,6,6-pentamethylpiperidin-4-yl)imidazo[1,2-a]pyridine-3-carboxamide]
The MEC of the first is 2-fold higher: 0.20 µM for the first, 0.10 µM for the second.

Compared with `Cc1nc2c(OCc3c(F)cccc3F)cccn2c1C(=O)NCCN(C)C` [Example 86, 8-[(2,6-difluorobenzyl)oxy]-N-[2-(dimethyl-amino)ethyl]-2-methylimidazo[1,2-a]pyridine-3-carboxamide], `Cc1nc2c(OCc3c(F)cccc3F)cccn2c1C(=O)NCCCN(C)C` [Example 87, 8-[(2,6-difluorobenzyl)oxy]-N-[3-(dimethyl-amino)propyl]-2-methylimidazo[1,2-a]-pyridine-3-carboxamide] is 2-fold lower in MEC: 2.00 µM for the first, 1.00 µM for the second.

First: Cc1nc2c(OCc3c(F)cccc3F)cccn2c1C(=O)NCCN(C(C)C)C(C)C [Example 88, 8-[(2,6-difluorobenzyl)oxy]-N-[2-(diisopropyl-amino)ethyl]-2-methylimidazo[1,2-a]pyridine-3-carboxamide]
Second: Cc1nc2c(OCc3c(F)cccc3F)cccn2c1C(=O)NCCN1CCOCC1 [Example 89, 8-[(2,6-difluorobenzyl)oxy]-2-methyl-N-[2-(morpholin-4-yl)ethyl]imidazo[1,2-a]pyridine-3-carboxamide]
The MEC of the first is 1.5-fold higher: 1.00 µM for the first, 0.65 µM for the second.
